# Measured values from patent US10111846B2, “S isomers of alpha-methyl-hydrocinnamic acid for the treatment of blood disorders” (priority 2009, dated 2018).
# Entries after “also recorded” stand apart in the source; their conditions may differ.
# Columns and labels:
# [1] = PK profiles after oral and IV administration in baboons; type: in vivo
# Protocol: (§1) FIGS. 8A-8B show […] and oral bioavailability of ST7. […] Target does equivalent to 20 mg/kg in an adult human.
# (§2) Accordingly, ST7 is suitable for once/day dosing.
# [2] = tested on: erythropoiesis and myelopoiesis; experiment: In vitro cell culture testing of stimulation of erythropoiesis and myelopoiesis; type: cell-based; conditions: for concentration giving stimulation of erythropoiesis and myelopoiesis: cell culture, data not shown
# Source text: ST7S is shown to stimulate myelopoiesis and erythropoiesis in animal subjects. […] Thus, the employed concentration of S isomer is about 4-fold lower than that of racemate to achieve similar degrees of erythropoiesis and myelopoiesis.
# [3] = tested on: WBC and neutrophil counts; experiment: WBC and absolute neutrophil counts (ANC) in baboons; type: in vivo, baboon
# Protocol: FIG. 12 is a graph showing increase in both white blood cells (WBC) and Absolute neutrophil counts (ANC) after oral administration of 200 mg/kg ST7S on days 0-4 results in a 3-fold stimulation in WBC and neutrophil counts over 6 days.
# In particular, oral administration of ST7 to a baboon results in a 3-fold stimulation of WBC count over 6 days (FIG. 2A).
# bone marrow = experiment: Lethally-irradiated murine model, bone marrow histology; type: in vivo, mice; conditions: LD90 irradiation day 0, daily SC from day 1, day 15
# Protocol: Mice were irradiated at LD90 on day 0, and received daily SC injections of ST7-S or saline (control) starting Day 1. Bone marrow was examined on Day 15.
# (§3) In particular, absolute neutrophil count (ANC) increased after administration of NaST7 (500 mg/kg IP and 300 mg/kg IP) after sub-lethal does of irradiation (e.g., exposure to 6 Gy irradiation on day 0).
# [4] = Oral administration to a normal human subject, plasma levels; type: in vivo
# Protocol: as §1, §2
# erythropoiesis [5] = experiment: ST7 once daily to mice for 5 days: erythropoiesis (hematocrit, hemoglobin); type: in vivo; conditions: once daily for 5 days, by day 14
# [6] = tested on: human hematopoietic cultures; experiment: CFU-GM colony formation in human hematopoietic cultures; type: cell-based
# [7] = tested on: Chemotherapy-Induced Neutropenia Murine Model; experiment: Chemotherapy (5-FU)-induced neutropenia murine model; type: in vivo, mice
# Protocol: Mice were treated with 5-FU on day 0, then received daily SC injection of saline or ST7 or G-CSF beginning on Day 1 and absolute neutrophil counts (ANC) were assessed on days 0, 9 and 13.
# Additionally, administration of ST7 also enhances Myeloid Recovery in a Chemotherapy-Induced Neutropenia Murine Model. Mice were treated with 5-FU on day 0, then received daily SC injection of saline (control) or ST7 or G-CSF beginning on Day 1 and the absolute neutrophil counts (ANC) were assessed on days 0, 9 and 13.
# erythropoiesis [8] = experiment: Oral ST7 in baboon with daily phlebotomy, chronic anemia; type: in vivo; conditions: oral 50 mg/kg per day, 5 days a week over 3 weeks
# Mcl-1L to Mcl-1S = experiment: Western blot of Mcl-1L to Mcl-1S protein expression (anti-apoptotic proteins); type: cell-based; conditions: after exposure
# Source text: (§4) FIG. 7A is a histogram showing hemokines SCFADs induce anti-apoptotic proteins. FIG. 7B is a western blot of Mcl-1L to Mcl-1S protein expression (with β-actin as a protein loading control).
# [9] = tested on: cultured normal human neutophils; experiment: Human neutrophil survival in vitro; type: cell-based; conditions: 200 μM, 50 μM
# Source text: as §4
# [10] = tested on: sub-lethally irradiated mouse model; experiment: Sub-lethally irradiated (6 Gy) mouse model, ANC; type: in vivo, mice; parameters: platelet level, level below which decrease was prevented at any timepoint / ANC, level below which decline was prevented at any time: unit not given here
# Protocol: FIG. 9 is a graph of absolute neutrophil count (ANC) response to NaST7 (500 mg/kg IP and 300 mg/kg IP) after sub-lethal does of irradiation where mice were exposed to 6 Gy irradiation on day 0 and daily ST7 (enantiomer) was administered at two doses, beginning day 1.
# as §3
# platelet counts = experiment: Platelet counts in nonhuman primates; type: in vivo, baboon; conditions: IV to 3 baboons on days 1-3 and 7-9
# Protocol: ST7 was administered via IV to baboons on days 1-3 and 7-9. ST7 works as similarly in all three baboons (Baboon numbers: GG24, FM45, FM83).
# Administration of ST7 also increases platelet levels after administration to non-human primates.
# [11] = oral 200 mg/kg on days 0-4, over 6 days
compound,measurement,setting,value
"CC(Cc1ccccc1)C(=O)[O-].[Na+] (stereo not drawn) [ST7S, S-isomer of alpha-methyl-hydrocinnamic acid]",time available after administration,"[1]; about 113 mg/kg administered orally, FIG. 8A",at least 4 hours
same,fold lower concentration of S isomer than racemate for similar degrees of erythropoiesis and myelopoiesis,[2],about 4 fold
same,concentration giving stimulation of erythropoiesis and myelopoiesis,[2],about 50 μM
same,"neutrophil counts (ANC), short-term administration","[3]; baboons, 100 mg/kg at day 0-2 and day 7-9",increases neutrophil counts
same,"neutrophil counts (ANC), long term","[3]; baboons, 47 days, administered at 1-5 days and 34-38 days",increases neutrophil counts; also recorded: Neutrophil counts increase
same,stimulation in WBC,[3]; [11],3 fold
same,stimulation in neutrophil counts,[3]; [11],3 fold
same,bone marrow histology,bone marrow,stimulates bone marrow recovery; also recorded: normocellular marrows
same,time available after administration,"[4]; about 1.4 g administered orally, FIG. 8B",at least 14 hours
"CC(Cc1ccccc1)C(=O)O (racemic) [ST7, α-methyl-hydrocinnamic acid]",hematocrit,erythropoiesis [5],significant increase in hematocrit
same,CFU-GM colony formation,[6],increases CFU-GM Colony formation
same,recovery of ANC,"[7]; 5-FU day 0, daily SC injection from day 1, day 13",accelerated recovery of ANC by day 13 as efficiently as G-CSF
same,increase in NE (K/μL) as compared to saline control,[7]; day 13,7-10 fold
same,absolute increase in hematocrit level,erythropoiesis [8],7 percentage points
same,"increase in hematocrit level, % of baseline",erythropoiesis [8],28%
same,increase in total hemoglobin level,erythropoiesis [8],2.5 g/dL
same,bioavailability,"[1]; baboon, in vivo, po, non-human primates, 113 mg/kg",> 90%
same,PK profiles oral versus IV,[1]; non-human primates,nearly identical PK profiles
same,concentration giving stimulation of erythropoiesis and myelopoiesis,[2],about 200 μM
same,stimulation of WBC count,"[3]; baboon, oral, over 6 days",3 fold
same,ratios of Mcl-1L to Mcl-1S,Mcl-1L to Mcl-1S,shifted towards anti-apoptotic actions
same,apoptosis of neutrophils,[9],suppresses apoptosis
same,drug levels relative to target dose,"[4]; normal human subject, oral 1 or 1.4 grams",persist above the target dose for several hours
same,"ANC, level below which decline was prevented at any time","[10]; 500 mg/kg IP and 300 mg/kg IP daily from day 1, 6 Gy on day 0",≥ 200
same,"platelet level, level below which decrease was prevented at any timepoint","[10]; 500 mg/kg IP and 300 mg/kg IP daily from day 1, sub-lethal irradiation",≥ 200
same,platelet count,platelet counts,stimulation of platelet count in all animals; also recorded: increased platelet counts
